Values of other authors as cited in patent US7052486B2, “Method and system for treating depressive and anxiety disorders” (Medtronic, Inc., priority 2003, dated 2006).

Assays:
refractory depression = details: single intrathecal bolus
depression = details: administered parenterally (IV or SQ)
[1] = test system: refractory obsessive-compulsive disorder (OCD); details: chronic parenteral use

| Compound | patients successfully treated for refractory depression (refractory depression) | time to rapid and dramatic improvement in the symptoms of severe depression (refractory depression) | response in depression (depression) | OCD behaviors [1] | symptoms of depression as measured by the Hamilton scale [1] |
| --- | --- | --- | --- | --- | --- |
| NC(=O)[C@@H]1CCCN1C(=O)[C@H](Cc1cnc[nH]1)NC(=O)[C@@H]1CCC(=O)N1 [TRH, Thyrotropin-releasing hormone] | 7 out of 10 | < 24 h | unpredictable responses |  |  |
| CNS(=O)(=O)Cc1ccc2[nH]cc(CCN(C)C)c2c1 [sumatriptan] |  |  |  | only modest reductions | significant improvements |
